Test results from US10160762B2, “6-alkyl dihydropyrazolopyrimidinone compounds as PDE2 inhibitors” (Merck Sharp & Dohme Corp., priority 2015, dated 2018).

Biological target: T1, human PDE2A1 (Homo sapiens, UniProt O00408)
T1 construct: GST; purchased BPS Bioscience (San Diego, Calif.) 60020; host or cells: insect cells
Experiment: IMAP FP PDE assay, human PDE2A1
Type: biochemical
Details: Lab B; read-out: Human PDE2 Ki (nM) Lab B
Procedure, shortened: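 GST-tagged human PDE2A1 from insect cells; substrate 50 nM FAM-cAMP containing 1000 nM cGMP in Tris pH 7.2/MgCl2/DTT buffer, enzyme giving 20% conversion. 60 min at room temperature, IMAP binding reagent, fluorescence polarization read. Apparent Ki from FP readings using apparent KM 10,000 nM; ten-point 3-fold titrations.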

T1 sequence (O00408 1-920 isoform O00408-2): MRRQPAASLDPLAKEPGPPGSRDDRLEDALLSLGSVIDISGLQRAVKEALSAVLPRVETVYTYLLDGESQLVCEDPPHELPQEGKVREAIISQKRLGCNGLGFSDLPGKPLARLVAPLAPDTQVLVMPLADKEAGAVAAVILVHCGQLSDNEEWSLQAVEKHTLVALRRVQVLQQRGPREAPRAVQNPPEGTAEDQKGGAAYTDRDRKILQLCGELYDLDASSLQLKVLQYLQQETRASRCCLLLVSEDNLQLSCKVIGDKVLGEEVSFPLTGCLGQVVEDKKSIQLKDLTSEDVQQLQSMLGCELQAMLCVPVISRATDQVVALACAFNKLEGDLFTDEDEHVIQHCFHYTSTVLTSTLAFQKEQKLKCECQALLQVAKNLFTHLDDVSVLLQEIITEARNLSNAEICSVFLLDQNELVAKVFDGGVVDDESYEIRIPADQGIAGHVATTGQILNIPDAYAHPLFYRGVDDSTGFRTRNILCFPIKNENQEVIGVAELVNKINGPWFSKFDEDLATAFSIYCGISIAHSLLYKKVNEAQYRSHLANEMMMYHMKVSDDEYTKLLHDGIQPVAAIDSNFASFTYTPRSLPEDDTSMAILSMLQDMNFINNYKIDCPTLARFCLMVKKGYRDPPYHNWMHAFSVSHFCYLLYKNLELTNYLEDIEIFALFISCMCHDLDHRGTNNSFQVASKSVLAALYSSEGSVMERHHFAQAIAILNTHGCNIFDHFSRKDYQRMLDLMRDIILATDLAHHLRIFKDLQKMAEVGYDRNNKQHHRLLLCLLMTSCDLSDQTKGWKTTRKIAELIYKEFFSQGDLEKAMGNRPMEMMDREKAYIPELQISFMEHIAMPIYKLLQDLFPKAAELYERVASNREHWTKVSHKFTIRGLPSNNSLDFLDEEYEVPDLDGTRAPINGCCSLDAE

SMILES	Ki
CC(C)c1nc2c(c(CO)nn2C(C)c2ccc(C(F)(F)F)cc2)c(=O)[nH]1 (racemic) [Example 296, 3-(Hydroxymethyl)-6-(1-methylethyl)-1-{1-[4-(trifluoromethyl)phenyl]ethyl}-1,5-dihydro-4H-pyrazolo[3,4-d]pyrimidin-4-one]	39 nM
Cc1nc2c(c(CC(F)(F)F)nn2C(c2ccc(C(F)(F)F)cc2)C(C)(C)C)c(=O)[nH]1 (single isomer, unassigned) [Example 57, (S)- or (R)-1-(2,2-Dimethyl-1-(4-(trifluoromethyl)phenyl)propyl)-6-methyl-3-(2,2,2-trifluoroethyl)-1H-pyrazolo[3,4-d]pyrimidin-4(5H)-one]	62 nM
Cc1nc2c(c(CC(F)(F)F)nn2C(c2ccc(C(F)(F)F)cc2)C2(C)CC2)c(=O)[nH]1 (single isomer, unassigned) [Example 59, (S)- or (R)-6-Methyl-1-((1-methylcyclopropyl)(4-(trifluoromethyl)phenyl)methyl)-3-(2,2,2-trifluoroethyl)-1H-pyrazolo[3,4-d]pyrimidin-4(5H)-one]	23 nM
Cc1nc2c(c(CO)nn2C(c2ccc(C(F)(F)F)cc2)C(C)(C)C)c(=O)[nH]1 (single isomer, unassigned) [Example 83, (S)- or (R)-1-(2,2-Dimethyl-1-(4-(trifluoromethyl)phenyl)-propyl)-3-(hydroxymethyl)-6-methyl-1H-pyrazolo[3,4-d]pyrimidin-4(5H)-one]	7.6 nM
Cc1nc2c(c(CO)nn2C(c2ccc(OC(F)(F)F)cc2)C(C)C)c(=O)[nH]1 (single isomer, unassigned) [Example 84, (R)- or (S)-3-(Hydroxymethyl)-6-methyl-1-(2-methyl-1-(4-(trifluoromethoxy)phenyl)propyl)-1H-pyrazolo[3,4-d]pyrimidin-4(5H)-one]	11 nM

These reach a lower Ki. Values come first.

Ki	SMILES
3.5 nM	Cc1nc2c(c(CO)nn2C(C)c2ccc(OC(F)F)cc2)c(=O)[nH]1 (single isomer, unassigned) [Example 21, (S)- or (R)-1-(1-(4-(Difluoromethoxy)phenyl)ethyl)-3-(hydroxymethyl)-6-methyl-1H-pyrazolo[3,4-d]pyrimidin-4(5H)-one]
3.3 nM	Cc1nc2c(c(CO)nn2C(C)c2ccc(S(F)(F)(F)(F)F)cc2)c(=O)[nH]1 (single isomer, unassigned) [Example 77]
2.1 nM	Cc1nc2c(c(CO)nn2C(C)c2ccc(C(F)(F)F)cc2F)c(=O)[nH]1 (single isomer, unassigned) [Example 17, (S)- or (R)-1-(1-(2-Fluoro-4-(trifluoromethyl)phenyl)ethyl)-3-(hydroxymethyl)-6-methyl-1H-pyrazolo[3,4-d]pyrimidin-4(5H)-one]
1.9 nM	Cc1nc2c(c(CO)nn2C(c2ccc(C(F)(F)F)cc2)C2(C)CC2)c(=O)[nH]1 (single isomer, unassigned) [Example 24, (R)- or (S)-3-(Hydroxymethyl)-6-methyl-1-((1-methylcyclopropyl)(4-(trifluoromethyl)phenyl)methyl)-1H-pyrazolo[3,4-d]pyrimidin-4(5H)-one]
1.8 nM	Cc1nc2c(c(CO)nn2C(C)c2ccc(C(F)(F)F)cc2Cl)c(=O)[nH]1 (single isomer, unassigned) [Example 19, (S)- or (R)-1-(1-(2-Chloro-4-(trifluoromethyl)phenyl)ethyl)-3-(hydroxymethyl)-6-methyl-1H-pyrazolo[3,4-d]pyrimidin-4(5H)-one]
1.1 nM	Cc1nc2c(c(CO)nn2C(C)c2ccc(SC(F)(F)F)cc2)c(=O)[nH]1 (single isomer, unassigned) [Example 23, (S)- or (R)-3-(Hydroxymethyl)-6-methyl-1-(1-(4-(trifluoromethylthio)phenyl)ethyl)-1H-pyrazolo[3,4-d]pyrimidin-4(5H)-one]
0.89 nM	Cc1nc2c(c(CO)nn2C(c2ccc(OC(F)(F)F)cc2)C(C)C)c(=O)[nH]1 (single isomer, unassigned) [Example 85, (S)- or (R)-3-(Hydroxymethyl)-6-methyl-1-(2-methyl-1-(4-(trifluoromethoxy)phenyl)propyl)-1H-pyrazolo[3,4-d]pyrimidin-4(5H)-one]
